What follows are compounds tested against T1, OnOr6/2 (Ostrinia nubilalis, UniProt D3J5H9) (assay: two-electrode voltage clamp, Xenopus oocytes). Conditions: read-out: EC50 (μM ± SEM).
T1 construct: gene OR6; full-length ORF (421-425 residues for the set) in pGEMHE; cRNA co-injected with OnOr2 in Xenopus oocytes; dimer with Or83b ortholog; with Odorant receptor coreceptor
T1 sequence (D3J5H9 1-421): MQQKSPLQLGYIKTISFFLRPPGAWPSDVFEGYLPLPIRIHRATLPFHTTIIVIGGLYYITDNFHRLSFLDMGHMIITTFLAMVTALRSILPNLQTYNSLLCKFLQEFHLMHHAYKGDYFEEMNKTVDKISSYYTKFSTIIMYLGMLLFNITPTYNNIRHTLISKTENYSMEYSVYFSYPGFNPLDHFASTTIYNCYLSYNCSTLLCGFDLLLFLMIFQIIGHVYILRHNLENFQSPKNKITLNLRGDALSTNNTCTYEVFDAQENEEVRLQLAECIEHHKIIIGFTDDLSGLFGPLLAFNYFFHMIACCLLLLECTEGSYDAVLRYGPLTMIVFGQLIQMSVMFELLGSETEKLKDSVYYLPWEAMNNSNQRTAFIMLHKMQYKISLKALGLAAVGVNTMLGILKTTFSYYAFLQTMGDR
T1 sequence (D3J5H5 1-473 partner): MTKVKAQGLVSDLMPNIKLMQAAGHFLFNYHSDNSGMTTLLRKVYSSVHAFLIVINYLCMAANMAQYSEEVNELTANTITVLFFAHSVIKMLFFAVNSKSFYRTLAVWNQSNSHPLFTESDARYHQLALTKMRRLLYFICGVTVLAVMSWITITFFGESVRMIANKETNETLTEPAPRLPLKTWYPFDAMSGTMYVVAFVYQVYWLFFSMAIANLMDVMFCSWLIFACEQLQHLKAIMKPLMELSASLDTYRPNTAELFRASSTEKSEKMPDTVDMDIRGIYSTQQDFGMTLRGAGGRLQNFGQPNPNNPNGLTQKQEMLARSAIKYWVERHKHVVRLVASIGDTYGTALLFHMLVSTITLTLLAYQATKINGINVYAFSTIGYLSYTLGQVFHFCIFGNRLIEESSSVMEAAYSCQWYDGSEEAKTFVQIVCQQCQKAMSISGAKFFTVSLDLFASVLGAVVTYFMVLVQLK
Type: cell-based
Excerpt: two-electrode voltage clamp, Xenopus oocytes on OnOr6/2

EC50 | SMILES
0.86 ± 0.27 µM | CC/C=C\CCCCCCCCCCOC(C)=O [Z11, Z11–14:OAc]

These compounds were tested against T2, OnOr1/2 (Ostrinia nubilalis, UniProt D3J5H4) (assay: two-electrode voltage clamp, Xenopus oocytes). Conditions: read-out: EC50 (μM ± SEM).
T2 construct: gene OR1; full-length ORF (421-425 residues for the set) in pGEMHE; cRNA co-injected with OnOr2 in Xenopus oocytes; dimer with Or83b ortholog; with Odorant receptor coreceptor
T2 sequence (D3J5H4 1-424): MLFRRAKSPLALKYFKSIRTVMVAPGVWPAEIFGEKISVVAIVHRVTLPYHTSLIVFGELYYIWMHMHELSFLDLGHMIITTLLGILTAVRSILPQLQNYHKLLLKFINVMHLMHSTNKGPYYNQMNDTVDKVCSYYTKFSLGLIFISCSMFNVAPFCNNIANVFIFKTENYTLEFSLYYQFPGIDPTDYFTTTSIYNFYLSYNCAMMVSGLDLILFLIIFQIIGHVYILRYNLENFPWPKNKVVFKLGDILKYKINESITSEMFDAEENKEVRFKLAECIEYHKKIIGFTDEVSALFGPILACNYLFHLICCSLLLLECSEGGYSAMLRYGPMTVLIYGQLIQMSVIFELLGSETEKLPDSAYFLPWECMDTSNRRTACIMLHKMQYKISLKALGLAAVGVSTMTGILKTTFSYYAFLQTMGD
T2 sequence (D3J5H5 1-473 partner): T1 sequence (D3J5H5 1-473 partner)
Type: cell-based
Excerpt: two-electrode voltage clamp, Xenopus oocytes on OnOr1/2

SMILES | EC50
CC/C=C/CCCCCCCCCCOC(C)=O [E11, E11–14:OAc] | 1.92 ± 0.2 µM
CCCC/C=C\CCCCCCCCOC(C)=O [Z9, Z9–14:OAc] | 1.54 ± 0.33 µM
CC/C=C\CCCCCCCCCCOC(C)=O [Z11, Z11–14:OAc] | 0.34 ± 0.05 µM

Now from value to compound:

EC50 | SMILES
0.26 ± 0.05 µM | C/C=C/CCCCCCCCCCCOC(C)=O [E12, E12–14:OAc]
2.73 ± 0.24 µM | C/C=C\CCCCCCCCCCCOC(C)=O [Z12, Z12–14:OAc]

Reference: PMC2801615, “Sex Pheromone Receptor Specificity in the European Corn Borer Moth, Ostrinia nubilalis” (PLoS ONE, 2010)
